From publication PMC10526447 (Biomolecules, 2023) come the findings set out here.

The test system of test [1] is Pseudotyped SARS-CoV-2 BA.1. The conditions noted are these: Pseudotyped BA.1, 48 h.
Test [2] relates to Pseudotyped SARS-CoV-2 BA.5. The conditions noted are these: Pseudotyped BA.5, 48 h.
The test system of test [3] is Pseudotyped SARS-CoV-2 BA.2. The conditions noted are these: Pseudotyped BA.2, 48 h.
Test [4] deals with Pseudotyped SARS-CoV-2 BF.7. The conditions noted are these: Pseudotyped BF.7, 48 h.
Test [5] concerns Pseudotyped SARS-CoV-2 BA.4.6. The conditions noted are these: Pseudotyped BA.4.6, 48 h.
The test system of test [6] is Pseudotyped SARS-CoV-2 XBB. The conditions noted are these: 48 h.
Test [7] deals with Pseudotyped SARS-CoV-2 BA.2.12.1. The conditions noted are these: Pseudotyped BA.2.12.1, 48 h.
Test [8] has as its system Pseudotyped SARS-CoV-2 BA.2.75. The conditions noted are these: Pseudotyped BA.2.75, 48 h.
The subject of test [9] is live SARS-CoV-2 Delta variant (B.1.617.2). The conditions noted are these: live Delta variant (B.1.617.2, 2 h).
The test system of test [10] is Pseudotyped SARS-CoV-2 BQ.1.1. The conditions noted are these: Pseudotyped BQ.1.1, 48 h.
The test system of test [11] is Pseudotyped SARS-CoV-2 B.1.351 (Beta). The conditions noted are these: Pseudotyped B.1.351 (Beta, 48 h).
Test [12] relates to Pseudotyped SARS-CoV-2 N501Y. The conditions noted are these: 48 h.
Test [13] has as its system Pseudotyped SARS-CoV-2 B.1.351 (Beta). The conditions noted are these: Pseudotyped B.1.351 (Beta, 48 h). The source holds these as a separate data set.
Test [14] has as its system Pseudotyped SARS-CoV-2 B.1.1.7 (Alpha). The conditions noted are these: Pseudotyped B.1.1.7 (Alpha, 48 h).
Test [15] relates to Pseudotyped SARS-CoV-2 C.37. The conditions noted are these: Pseudotyped C.37, 48 h.
The subject of test [16] is Pseudotyped SARS-CoV-2 B.1.617.2 (Delta). The conditions noted are these: Pseudotyped B.1.617.2 (Delta, 48 h).
Test [17] has as its system Pseudotyped SARS-CoV-2 B.1.1.7 (Alpha). The conditions noted are these: Pseudotyped B.1.1.7 (Alpha, 48 h). This is another data set of the same source.
The test system of test [18] is Pseudotyped SARS-CoV-2 B.1.617.2 (Delta). The conditions noted are these: Pseudotyped B.1.617.2 (Delta, 48 h). This is another data set of the same source.
Test [19] relates to Pseudotyped SARS-CoV-2 P.1 (Gamma). The conditions noted are these: Pseudotyped P.1 (Gamma, 48 h).
The test system of test [20] is Pseudotyped SARS-CoV-2 N501Y. The conditions noted are these: 48 h. This is another data set of the same source.
In test [21] the test system is Pseudotyped SARS-CoV-2 C.37. The conditions noted are these: Pseudotyped C.37, 48 h. This is another data set of the same source.
Test [22] relates to Pseudotyped SARS-CoV-2 P.1 (Gamma). The conditions noted are these: Pseudotyped P.1 (Gamma, 48 h). The source holds these as a separate data set.

Where two headings read alike, the source gives them in different places. Positions of bridges follow the written chain, without caps; N, C: chain ends. No end group written: not given here.

By IC50 is commonly meant the midpoint of a concentration-inhibition curve. Higher therefore signals lower potency. For the compound `CC[C@H](C)[C@H](NC(=O)[C@H](C)NC(=O)[C@H](CCC(=O)O)NC(=O)[C@H](CCC(=O)O)NC(=O)[C@H](CC(C)C)NC(=O)[C@H](CCCCN)NC(=O)[C@H](CCCCN)NC(=O)[C@H](CCSC)NC(=O)[C@H](CCC(=O)O)NC(=O)[C@H](Cc1ccc(O)cc1)NC(=O)[C@H](CCC(=O)O)NC(=O)[C@H](CC(C)C)NC(=O)[C@H](CC(=O)O)NC(=O)[C@H](CC(C)C)NC(=O)[C@H](Cc1ccccc1)NC(=O)[C@@H](NC(=O)[C@@H](NC(=O)[C@H](CC(N)=O)NC(=O)[C@@H](NC(=O)[C@H](CCC(N)=O)NC(=O)[C@H](CC(=O)O)NC(=O)[C@H](CC(C)C)NC(=O)[C@@H](N)CO)[C@@H](C)CC)C(C)C)[C@@H](C)O)C(=O)N[C@@H](CCCCN)C(=O)N[C@@H](CCCCN)C(=O)N[C@@H](CC(C)C)C(=O)N[C@@H](CCC(=O)O)C(=O)N[C@@H](CCC(=O)O)C(=O)N[C@@H](CO)C(=O)N[C@@H](Cc1ccc(O)cc1)C(=O)N[C@H](C(=O)N[C@@H](CC(=O)O)C(=O)N[C@@H](CC(C)C)C(=O)N[C@@H](CCCCN)C(=O)N[C@@H](CCC(=O)O)C(=O)N[C@@H](CC(C)C)C(=O)O)[C@@H](C)CC` [EK1], the IC50 worked out at 334 nM in [1]; 690 nM in test [2]; 544 nM in test [3]; 260 nM in test [4]; 201 nM in test [5]; 366 nM in [6]. Also, the half-maximal inhibitory concentration (IC50) in test [7] is 592 nM; in [8] it was 248 nM; in test [9], 296 nM; in test [10] it was 378 nM.
For the compound `CC(C)C[C@@H]1NC(=O)[C@H](Cc2c[nH]cn2)NC(=O)[C@H](Cc2c[nH]c3ccccc23)NC(=O)[C@H](C)NC(=O)[C@@H](NC(=O)[C@@H](N)CC(=O)O)CSSC[C@@H](C(=O)N[C@H](C(=O)O)[C@@H](C)O)NC(=O)[C@H](Cc2c[nH]c3ccccc23)NC(=O)[C@H](C(C)C)NC(=O)[C@H](CC(C)C)NC(=O)[C@H](CCC(=O)O)NC(=O)CNC1=O` [IBP], the IC50 in test [11], in test [12], in test [13], in test [1], in [2] and in test [3] was over 50000 nM each time. Also, the IC50 in test [14], in [15], in test [16], in test [17], in test [4] and in [5] was over 50000 nM throughout. The IC50 in [18], in test [19], in test [6], in [20], in test [21] and in test [7] was over 50000 nM each time. The IC50 in [8], in test [9], in [22] and in test [10] was over 50000 nM each time.
Consider “DCAWHLGELVWCTSLDQINVTFLDLEYEMKKLEEAIKKLEESYIDLKEL (disulfide 2-12) [IBP-EK1]”, for which the IC50 turned out to be 301 nM in test [1]; 564 nM in test [2]; 399 nM in [3]; 257 nM in test [4]; 195 nM in [5]; 330 nM in [6]. In addition, the IC50 in test [7] was 527 nM; in [8], 221 nM; in test [9], 204 nM; in test [10], 342 nM.
